Measurements as given in PubChem BioAssay (NCI).
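The compound was tested at five concentrations on cells cultured in 96-well plates, with a 48-hour exposure period. GI50 = concentration required for 50% inhibition of growth. Definition used: TGI = concentration required for complete inhibition of growth.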

Assays:
Experiment in all cases: DTP human tumour cell line panel, 48 h
HL-60(TB) leukemia = test system: HL-60(TB) leukemia
NCI-H460 lung = test system: NCI-H460 lung
SN12C renal = test system: SN12C renal
OVCAR-4 ovarian = test system: OVCAR-4 ovarian
CAKI-1 renal = test system: CAKI-1 renal
IGROV1 ovarian = test system: IGROV1 ovarian
TK-10 renal = test system: TK-10 renal
M14 melanoma = test system: M14 melanoma
HT29 colon = test system: HT29 colon
EKVX NSCLC = test system: EKVX NSCLC

SMILES	TGI (HL-60(TB) leukemia) [µM]	TGI (NCI-H460 lung) [µM]	TGI (SN12C renal) [µM]	TGI (OVCAR-4 ovarian) [µM]	TGI (CAKI-1 renal) [µM]	TGI (IGROV1 ovarian) [µM]	TGI (TK-10 renal) [µM]	TGI (M14 melanoma) [µM]	TGI (HT29 colon) [µM]	TGI (EKVX NSCLC) [µM]	GI50 (HL-60(TB) leukemia) [µM]	GI50 (NCI-H460 lung) [µM]	GI50 (SN12C renal) [µM]	GI50 (OVCAR-4 ovarian) [µM]	GI50 (CAKI-1 renal) [µM]	GI50 (TK-10 renal) [µM]	GI50 (M14 melanoma) [µM]	GI50 (HT29 colon) [µM]	GI50 (EKVX NSCLC) [µM]	GI50 (IGROV1 ovarian) [µM]
CC(C)C(Sc1nc(N)nc2nc[nH]c12)C(=O)O (stereo not given)	> 100	> 100	> 100	> 100	> 100	> 100	> 100	> 100	> 100	> 100										
CC(=O)CC(O)(C(F)(F)Cl)C(F)(Cl)Cl (stereo not given)	> 10	> 10	> 10	> 10	> 10	> 10	> 10	> 10	> 10	> 10										
CC1(C)OCC(/C=C\C(O)CC2(C)OCCO2)CO1 (stereo not given)	> 100	> 100	> 100	> 100	> 100	> 100	> 100	> 100	> 100	> 100										
NC1CC(=O)c2c(I)sc(I)c21 (stereo not given)	14.6	66.8	> 60.6	38.4	27.1	33.1	37.2	> 77.1	50.6	39.3										
c1cc(CSP234N5CCN2CCN3CCN4CC5)cc(CSP234N5CCN2CCN3CCN4CC5)c1	28.1	> 100	> 100	> 100	> 100	76.6	> 100	49	61	> 100										
CCCNC(=O)c1cc(OC)c(OC)cc1NC(=O)C12CC3CC(CC(C3)C1)C2	> 100	43.1	29.6	33.6	41.3	53.3	31.3	28.5	32.2	32.3										
CCOC(=O)/C(C(=O)c1ccc[nH]1)=C1/CCCN1C	> 100	> 100	> 100	> 100	> 100	> 100	> 100	> 100	> 100	> 100										
CCOC(=O)c1c(N2CCN(C)CC2)[nH]c(=O)c(C(c2c(Cl)cccc2Cl)c2c(O)c(C(=O)OCC)c(N3CCN(C)CC3)[nH]c2=O)c1O	58.2	77	48	38.4	52.7	39.2	55.4	68.9	39.1	34.2										
CCOc1c2c(cc3c1C(=O)c1c(OC)cccc1C3=O)C=C(OC)CC2	13.2	> 25	> 25	> 25	> 25	> 25	> 25	> 25	> 25	> 25										
CC(C)=CC(=O)c1[nH]c2ccccc2c1CC(=O)NCCc1cnc[nH]1	> 100	> 100	> 100	> 100	> 100	> 100	> 100	> 100	> 100	> 100										
COc1ccc(/C=C(\C#N)c2ccccn2)cc1OC	> 100	> 100	> 100	> 100	> 100	> 100	> 100	> 100	> 100	56.9										
CCC(CCCC[C@H]1CC[C@@H]2CC(=O)C[C@H]12)OC (stereo not given in full)	> 100	> 100	> 100	> 100	> 100	> 100	> 100	> 100	> 100	> 100										
c1c2c(cc3c1OCO3)-c1ncc3cc4c(cc3c1C2)OCO4	> 100	> 47.1	> 100	> 100	2.14	> 100	3.87	> 100	> 100	> 100	0.0713	0.108	0.0414	28.6	< 0.0154	0.143	< 0.01	< 0.01	19	
Cc1c(CCCl)c(Cl)n2c(nc3ccccc32)c1C#N	0.627	1.69	1.5	3.29	2.25	3.36	3.84	3.06	4.35	25.3										
CN(CCNC(=O)c1nn(C)c2c1Cc1ccccc1-2)CCNC(=O)c1nn(C)c2c1Cc1ccccc1-2	29	31.7	30.8	53.1	47.4	27.5	29.6	26.5	33.5	72.8										
COc1ccc(/C=N/n2c(-c3ccccc3)n[nH]c2=O)c(OC)c1	> 100	> 100	> 100	> 86.6	> 100	> 100	> 71.5	> 100	76.3	> 100										
O=C(c1ccccc1)c1nn(-c2cccc(Cl)c2)c2nc3nc(-c4ccccc4)cc(=O)n3nc12	16.7	> 25	> 25	> 25	> 25	> 25	> 25	> 25	> 25	> 25	5.1	> 25	> 25	> 25	> 25	> 25	> 25	> 25	> 25	> 25
COC(=O)[C@@H]1CN(C(=O)Cc2ccccc2)C(=O)N1	> 100	> 100	> 100	> 100	> 100	> 100	> 100	> 100	> 100	> 100										
O=C1OCOC2(CCCC2)C1c1ccccc1 (stereo not given)	> 100	> 100	> 100	> 100	> 100	> 100	> 100	> 100	> 100	> 100										
Cc1ccc(NC(c2ccccc2)P(=O)(c2ccccc2)c2ccccc2)cc1 (stereo not given)	> 100	> 100	> 100	> 100	> 100	> 100	> 100	> 100	> 100	> 100										
CNC(=O)OC1/C(C)=C\C(C)C(O)C(OC)CC(C)CC2=C(OC)C(=O)C=C(C2=O)N(C)C(=O)/C(C)=C/C=C\C1OC (stereo not given)	14.1	39.7	16.5	22	20.8	24.6	22	18.4	17	24.7	0.918									
